These results are taken from patent US10688193B2, “PH-sensitive linkers for delivering a therapeutic agent” (GNT BIOTECH & MEDICALS CORPORATION, priority 2015, dated 2020).

The nature of data set [1]: in vitro. The following applies: human, MCF7 breast adenocarcinoma cells.
Text: (§2) After took photos, cells were counted by using hemocytometer.
Data set [2] in a line: in vitro. The following applies: human, H184B5F5/M10 mammary epithelial cells.
Text: as §2
Data set [3] in a line: in vitro. The following applies: human, MDA-MB-231 breast adenocarcinoma cells.
Text: as §2
A short description of data set [4]: in vitro. The following applies: human, MDA-MB-453 breast adenocarcinoma cells.
A further data set addresses TNFα (Homo sapiens, UniProt P01375). Put plainly: Blocking of TNFα-induced MCF-7 cell apoptosis (MTS). The class given is cell-based. The following applies: for Relative cell survival %: TNFα 12.5 ng/mL, MCF-7, 72 hours. As for the experimental part:
We further examined Au/LKI-1/ETA complex by binding with secondary antibody conjugated with 1-5 nm AuNPs. In TEM images of Au/LKI-1/ETA complex, binding of 1-5 nm gold-labeled secondary anti-human IgG antibodies to ETA located on the AuNP surface was observed (FIG. 4C). We further investigated the TNFα blocking ability of ETA and Au/LKI-1/ETA. MCF-7 cells (5×10^5) were treated with the mixtures of 12.5 ng/mL TNFα and 62.5, 125, 250, 500 ng/mL ETA or Au/LKI-1/ETA complex for 2 hours, respectively. The treated cells were incubated at 37° C. for 72 hours and then the cell numbers were counted by MTS [(3-(4,5-dimethylthiazol-2-yl)-5-(3-carboxymethoxyphenyl)-2-(4-sulfophenyl)-2H-tetrazolium)] assay. […] ETA and Au/LKI-1/ETA complex were used to test their abilities in blocking TNFα induced MCF-7 cell apoptosis, Table 4.

The subject of the next data set is MDA-MB-231 breast tumors. Put plainly: MDA-MB-231 breast tumor xenograft efficacy study. The class given is in vivo, BALB/c-nu/nu mice. The source says:
FIG. 6 (A) to (D) show the treatment of MDA-MB-231 breast tumors. (A) Net animal weight change (g) during the treatment. From the data, doxorubicin and Au/LKI-1/Dox was cause the weight loss over 20% and 3% in nude mice (N=3), respectively. […] (B) The inhibition of MDA-MD-231 breast tumor growth (N=3): Dox>Au/LKI-1/Dox>Au/PEG=PBS. (C) TEM images of MDA-MB-231 breast tumor cells treated with Au/LKI-1/Dox complex was easy determined the Au/LKI-1/Dox complex in the tumor in xenograft model. (D) Immunohistochemistry of tumor specimens. Breast tumor specimens were taken from the mice, embedded in paraffin and stained with hematoxylineosin.
BALB/c-nu/nu mice were purchased from BioLASCO Taiwan. Eight week old male mice were injected unilaterally with 1.0×10^7 MDA-MB-231 breast tumor cells in 200 μL of 50:50 Matrigel/Leibovitz's (L-15) into the dorsum by subcutaneous injection. (1) Vehicle-PBS (negative control), (2) Doxorubicin (positive control), 5 mg/kg, (3) Au/PEG, (4) Au/LKI-1/Dox complex, 5 mg/kg of Dox. Treatment was ongoing until clinical symptoms necessitated sacrifice. Mice were weighed a minimum of two times/weekly and were monitored tumor size until clinical symptoms necessitated sacrifice (see FIG. 6A, 6B). TEM images of MDA-MB-231 breast tumor cells treated with Au/LKI-1/Dox complex in xenograft model. […] (see FIG. 6C) H&E stain of MDA-MB-231 tumor cells treated with Au/LKI-1/Dox complex in xenograft model. (see FIG. 6D)

The next data set concerns MDA-MB-453. Put plainly: Cytotoxicity assay of Au/LKs/Dox complexes (MTS, 72 hours). The following applies: Homo sapiens; MDA-MB-453, 72 hrs; read-out: IC50 value for complex cytotoxicity. The class given is cell-based. As for the experimental part: (§1) We examined the cytotoxicity of Au/LKs/Dox complexes and the IC50 value was calculated. […] The CellTiter 96® AQueous One Solution Cell Proliferation Assay (MTS) reagent was purchased from Promega (Madison, Wis., USA) and the assay was performed according to the manufacturer's instructions. Absorbance was measured at 490 nm using a microplate reader (Bio-tek, Powerwave X340, Winooski, Vt., USA).

Assay in data set [5]: as above
The class given is cell-based. The following applies: human, H184B5F5/M10 mammary epithelial cells; M10, 72 hrs; read-out: IC50 value for complex cytotoxicity. The method, then: as §1

TNFα, sequence (P01375 77-233 limits assumed, species assumed): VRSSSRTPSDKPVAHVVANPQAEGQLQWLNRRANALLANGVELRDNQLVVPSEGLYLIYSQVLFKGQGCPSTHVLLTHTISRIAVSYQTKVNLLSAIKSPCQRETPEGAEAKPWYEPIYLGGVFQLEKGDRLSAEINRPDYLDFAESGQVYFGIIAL

Take `NNC(=O)OCCNC(=O)CNC(=O)CNC(=O)CCCCC1CCSS1` (centres unmarked) [Linker II-2]: the IC50 at 72 h in the data set “in vitro [1]”, in “in vitro [2]”, in the data set “in vitro [3]” and in the data set “in vitro [4]” was greater than 800 µM throughout.
In the case of Etanercept, on TNFα (MCF-7 cells), the TNFα blocking ability entry was “TNFα blocking ability was observed”. In addition, the “Relative cell survival %” value on TNFα (dose 62.5 ng/mL) came out at 36.7 ± 1.4%; at TNFα (dose 125 ng/mL), 68.5 ± 2.3%; on TNFα (dose 250 ng/mL), 82.1 ± 6.5%; at TNFα (dose 500 ng/mL), 103.3 ± 0.9%.
In the case of `NNC(=O)OCCNC(=O)CNC(=O)CNC(=O)CNC(=O)CCCCC1CCSS1` (centres unmarked) [Linker II-3], the IC50 at 72 h in “in vitro [1]” was greater than 800 µM; in “in vitro [2]” it was 585 ± 132 µM; in the data set “in vitro [3]” it was 428 ± 116 µM; in the data set “in vitro [4]”, greater than 800 µM.
As to `NNC(=O)OCCOCCOCCNC(=O)CCCCC1CCSS1` (centres unmarked) [Linker I-3], the IC50 at 72 h came to 538 ± 39.6 µM in “in vitro [1]”, 555 ± 33.5 µM in “in vitro [2]”, 454 ± 142 µM in the data set “in vitro [3]” and 333 ± 9.8 µM in “in vitro [4]”.
As for `NNC(=O)OCCOCCOCCOCCNC(=O)CCCCC1CCSS1` (centres unmarked) [Linker I-4], the IC50 at 72 h in “in vitro [1]” was 569 ± 14.1 µM; in “in vitro [2]”, 560 ± 45.1 µM; in the data set “in vitro [3]”, 576 ± 81.9 µM; in “in vitro [4]” it was 342 ± 11 µM.
Turning to `COc1cccc2c1C(=O)c1c(O)c3c(c(O)c1C2=O)C[C@@](O)(C(=O)CO)C[C@@H]3O[C@H]1C[C@H](N)[C@H](O)[C@H](C)O1` [Dox, doxorubicin], the “inhibition of MDA-MB-231 breast tumor growth (rank order)” value in the data set on MDA-MB-231 breast tumors (N=3, 5 mg/kg of Dox) is recorded as “Dox>Au/LKI-1/Dox>Au/PEG=PBS”. Also, in the data set on MDA-MB-231 breast tumors (nude mice (N=3), 5 mg/kg of Dox), the “weight loss during the treatment” value is listed as “over 20%”. Besides, the “necrosis in tumor specimens (hematoxylin-eosin)” value in the data set with MDA-MB-231 breast tumors (xenograft tumors) is recorded as “more necrosis”. Besides, the IC50 in the data set on MDA-MB-453 stood at 650 ± 72 nM. In data set [5], the IC50 at 72 h stood at 140 ± 34 nM.
In the case of `NNC(=O)OCCOCCOCCOCCNC(=O)CCCCCS` [Linker SHI-4], the IC50 at 72 h is greater than 800 µM in the data set “in vitro [1]”, greater than 800 µM in the data set “in vitro [2]”, 533 ± 63.9 µM in “in vitro [3]” and 130 ± 13.4 µM in “in vitro [4]”.
Regarding `NNC(=O)OCCNC(=O)CCCCC1CCSS1` (centres unmarked) [Linker I-2], the IC50 at 72 h in the data set “in vitro [1]” was found to be 730 ± 36.7 µM; in the data set “in vitro [2]”, 686 ± 105 µM; in “in vitro [3]”, 536 ± 21.6 µM; in the data set “in vitro [4]” it was 432 ± 96.6 µM.
As to `NNC(=O)OCCOCCNC(=O)CCCCCS` [Linker SHI-1], the IC50 at 72 h is greater than 800 µM in “in vitro [1]”, greater than 800 µM in “in vitro [2]”, 559 ± 23.3 µM in “in vitro [3]” and 128 ± 15.1 µM in the data set “in vitro [4]”.
In the case of `NNC(=O)OCCOCCNC(=O)CCCCC1CCSS1` (centres unmarked) [Linker I-1], the IC50 at 72 h in “in vitro [1]” came to 692 ± 51.9 µM; in “in vitro [2]”, 584 ± 62.7 µM; in “in vitro [3]”, 529 ± 52.1 µM; in “in vitro [4]”, 299 ± 23 µM.
As to `NNC(=O)OCCOCCOCCOCCOCCOCCNC(=O)CCCCC1CCSS1` (centres unmarked) [Linker I-5], the IC50 at 72 h turned out to be 419 ± 23.8 µM in “in vitro [1]”, 569 ± 54.7 µM in the data set “in vitro [2]”, 484 ± 64.6 µM in the data set “in vitro [3]” and 460 ± 87.9 µM in the data set “in vitro [4]”.
`NNC(=O)OCCNC(=O)CNC(=O)CCCCC1CCSS1` (centres unmarked) [Linker II-1]: the 50% inhibitory concentration (IC50) at 72 h was 501 µM in the data set “in vitro [1]”, 500 µM in the data set “in vitro [2]”, 474 µM in the data set “in vitro [3]” and greater than 800 µM in the data set “in vitro [4]”.
